Assay results published in patent publication US20140120167A1, “MULTIFUNCTIONAL CHEMO- AND MECHANICAL THERAPEUTICS” (WILLIAM MARSH RICE UNIVERSITY, priority 2012, published 2014).

How the values were obtained:
[1] = tested on: HN31 squamous carcinoma cells; assay: Short-term complex viability (RRV, Trypan Blue exclusion and cell concentration) 72 h after treatment; format: cell-based, human; settings: for increase of cancer cell viability with plain (non-conjugated) nanocarriers compared with C225-conjugated carriers: GNP-C225 + PNB; for drug concentration required, drugs administered alone, to bring complex viability of cancer cells to the levels of PNB-enhanced release: no PNB
Procedure: Short term response in vitro to co-localized administration of drug nanocarriers, GNPs and laser pulses. We used EGFR-positive HN31 (cancer) cells and EGFR-negative NOM9 (normal) cells. […] After incubation, GNPs and drug carriers were washed off. […] PNB lifetime was obtained for individual cells. The short-term viability was evaluated 72 hours after the treatment of samples as a complex viability parameter RRV that included the viability level V1 (measured in % with Trypan Blue exclusion test) and the cell concentration C: RRV=C/C0*V1,*100% , where C0 is the cell concentration in the intact sample.
The ability of the PNB mechanism to overcome drug resistance and to reduce non-specific toxicity was evaluated with two common drugs and carrier types. Water-soluble doxorubicin was encapsulated into PEG-coated 90 nm Doxil liposomes that were conjugated with anti-EGFR antibody, C225 (L-Dox-C225). Non-soluble paclitaxel was loaded into 14 nm micelles conjugated to the same antibody (M-Ptx-C225). Each type of drug-loaded nanocarrier was administered separately with gold NP-C225 conjugates. Cancer (HN31) and normal (NOM9) cells were incubated identically with NP-C225 and nanocarriers. Drug doses were reduced to the level that provided relatively high viability of both cell types when treated with nanocarriers alone (without PNBs).
After incubation, NPs and nanocarriers were washed off, the cells were exposed to a single laser pulse (70 ps, 532 nm, 40 mJ cm^−2) and the PNB lifetime was obtained for individual cells. […] The cell concentration and viability were measured at 72 hours after the PNB generation as the complex viability parameter that was normalized by that in intact cells (FIG. 8). […] (FIGS. 8a and 8b).
Short-term therapeutic response to quadrapeutics and other treatments in vitro. […] The radiation treatment was administered within 60 min after PNB generation, i.e. when the intracellular concentration of the released drug was close to the maximal.

[2] = tested on: HN31 cells; assay: Clonogenic test (surviving fraction), cancer cells; format: cell-based, human; settings: Dox 2 μg mL^−1 or Ptx 33 ng mL^−1 + GNP 2.4×10^10 mL^−1 + laser 45 mJ cm^−2 + X-rays 4 Gy 6 hours after PNB
[3] = tested on: NOM9 cells; assay: Clonogenic test (surviving fraction), normal cells; settings: quadrapeutics, X-rays 4 Gy 6 hours after PNB
Excerpt: Evaluation of the long-term therapeutic response with a clonogenic test. We used EGFR-positive HN31 cells and EGFR-negative NOM9 cells. […] Thus the cells were exposed only to the internalized drug during the follow-up generation of PNBs. One to six hours afterwards, a single dose of X-rays (0-25 Gy) was applied.
To evaluate their colony-forming ability, the cells were trypsinized and replaced in 100 mm dishes in a free medium immediately after the treatment of samples. After 10 days of cultivation, the cells were stained with 0.5% crystal violet in absolute ethanol, and colonies with more than 50 cells were counted under a microscope. Plating efficiency was defined as the percentage of cells seeded that grew into colonies under a specific culture condition of a given cell line. […] All experiments were performed three times.

CC(=O)O[C@H]1C(=O)[C@@]2(C)[C@H]([C@H](OC(=O)c3ccccc3)[C@]3(O)C[C@H](OC(=O)[C@H](O)[C@@H](NC(=O)c4ccccc4)c4ccccc4)C(C)=C1C3(C)C)[C@]1(OC(C)=O)CO[C@@H]1C[C@@H]2O [paclitaxel]
fold higher concentration required for drug alone vs PNB-enhanced release [1]: 15 fold | increase of cancer cell viability with plain (non-conjugated) nanocarriers compared with C225-conjugated carriers [1]: several-fold | drug concentration required, drugs administered alone, to bring complex viability of cancer cells to the levels of PNB-enhanced release [1]: 1 µg/mL | cancer cell growth (clonogenicity) after quadrapeutics, mode D+PNB+XR6 [2]: strong therapeutic effect | viability of identically treated normal cells [3]: close to that of intact cells

COc1cccc2c1C(=O)c1c(O)c3c(c(O)c1C2=O)C[C@@](O)(C(=O)CO)C[C@@H]3O[C@H]1C[C@H](N)[C@H](O)[C@H](C)O1 [doxorubicin]
fold higher concentration required for drug alone vs PNB-enhanced release [1]: 18 fold | increase of cancer cell viability with plain (non-conjugated) nanocarriers compared with C225-conjugated carriers [1]: several-fold | drug concentration required, drugs administered alone, to bring complex viability of cancer cells to the levels of PNB-enhanced release [1]: 85 µg/mL
